# From patent US6376497B1, “Antifungal azole derivatives having a fluorinated vinyl group and process for preparing same” (Korea Research Institute of Chemical Technology, priority 1999, dated 2002)
# Where two headings read alike, the source gives them in different places.
# Columns and labels:
# [1] = test system: mouse; details: intravenous; cited from earlier work
# [2] = test system: mouse; details: oral; cited from earlier work
# [3] = test system: ICR mice; details: for LD50: single oral administration in corn oil containing 30% DMSO, observed for 7 days
# Experimental: 30 four-week-old, specific pathogen-free ICR mice, 15 female mice each weighing about 15.8 to 22.3 g and 15 male mice each weighing about 18.7 to 25.6 g, were provided by the Animal Center of Korean Research Institute of Chemical and Technology.
# When the mice became five-week-old, 15 female mice each weighing about 17.0 to 22.3 g and 15 male mice each weighing about 22.0 to 27.7 g were bred for 6 days before the experiment under an environment of […], 50±10% relative humidity, 12L/12D photoperiod, 10-20 ventilation and 150-300 Lux illumination, with free access to food(Cheil Fodder Co.) which had been sterilized by using 2.0 Mrad radiation and water sterilized by U.V. sterilizer.
# The compound of Example 26 of the present invention was dissolved in corn oil containing 30% DMSO and the solution was orally administered in doses of 10, 50, 100, 500, 1,000 and 2,000 mg of the compound/kg of the body weight(10 ml of the sample volume/kg of the body weight). […] The weight changes of the mice were recorded every day to examine the effect of the test compound. Further, on the 7th day, the mice were sacrificed and the internal organs were visually examined.
# [4] = test system: Aspergillus niger A. 16404; experiment: In vitro antifungal activity, microbroth dilution MIC; type: cell-based; details: 4 to 48 hours
# Method in brief: (§1)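 Broth microdilution adapted from NCCLS M27, in RPMI-1640 with 0.165 M MOPS, pH 7.0. Yeast or mould inoculum at 2×10^3 CFU/ml was mixed 1:1 with DMSO-derived compound solutions (200 to 0.10 μg/ml before mixing) and incubated at 35 °C for 4 to 48 h. MIC was the concentration showing no growth.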
# [5] = test system: Trichophyton mentagrophytes A. 9129; experiment: as above; type: cell-based; details: 4 to 48 hours
# Method in brief: as §1
# [6] = test system: Cryptococcus neoformans B. 42419; experiment: as above; type: cell-based; details: 4 to 48 hours
# Method in brief: as §1
# [7] = test system: Candida albicans IFO. 1385; experiment: as above; type: cell-based; details: 4 to 48 hours
# Method in brief: as §1
# [8] = test system: Torulopsis glabrata B. 16205; experiment: as above; type: cell-based; details: 4 to 48 hours
# Method in brief: as §1
# [9] = test system: Cryptococcus neoformans A. 34144; experiment: as above; type: cell-based; details: 4 to 48 hours
# Method in brief: as §1
# [10] = test system: Trichophyton mentagrophytes B. 32663; experiment: as above; type: cell-based; details: 4 to 48 hours
# Method in brief: as §1
# [11] = test system: Candida parapsitosis A. 7330; experiment: as above; type: cell-based; details: 4 to 48 hours
# Method in brief: as §1
# [12] = test system: Cryptococcus neoformans IFM. 40092; experiment: as above; type: cell-based; details: 4 to 48 hours
# Method in brief: as §1
# [13] = test system: Candida albicans C1-2; experiment: as above; type: cell-based; details: 4 to 48 hours
# Method in brief: as §1
# [14] = test system: Candida albicans A. 10231; experiment: as above; type: cell-based; details: 4 to 48 hours
# Method in brief: as §1
# [15] = test system: Aspergillus furnigatus B. 19119; experiment: as above; type: cell-based; details: 4 to 48 hours
# Method in brief: as §1
# [16] = test system: Candida krusei K. 11655; experiment: as above; type: cell-based; details: 4 to 48 hours
# Method in brief: as §1
# [17] = test system: Candida tropicalis A. 13803; experiment: as above; type: cell-based; details: 4 to 48 hours
# Method in brief: as §1
# [18] = test system: Candida pseudotropicalis K. 11658; experiment: as above; type: cell-based; details: RPMI-1640, 35° C., 4 to 48 hours, no growth observed
# Method in brief: as §1
# [19] = RPMI-1640, 35° C., no growth observed
smiles,measurement,setting,value
C[C@@H]1[C@H](O)[C@@H](C)/C=C/C=C/C=C/C=C/C=C/C=C/C=C/[C@H](O[C@@H]2O[C@H](C)[C@@H](O)[C@H](N)[C@@H]2O)C[C@@H]2O[C@](O)(C[C@@H](O)C[C@@H](O)[C@H](O)CC[C@@H](O)C[C@@H](O)CC(=O)O[C@H]1C)C[C@H](O)[C@H]2C(=O)O [amphotericin B],LD50,[1],4 mg/kg
CC(=O)N1CCN(c2ccc(OCC3COC(Cn4ccnc4)(c4ccc(Cl)cc4Cl)O3)cc2)CC1 (centres unmarked) [ketoconazole],LD50,[2],702 mg/kg
COc1cccc(C(=C(F)OCC2COC(Cn3ccnc3)(c3ccc(Cl)cc3Cl)O2)C(F)(F)F)c1 (centres unmarked) [Example 26],LD50,[3]; female,"approximately 2,000 mg/kg"
same,LD50,[3]; male,"higher than 2,000 mg/kg"
same,survival at day 7,"[3]; single oral dose of 1,000 mg/kg or below",All the mice were alive at day 7
same,weight loss,"[3]; single oral doses 10 to 2,000 mg/kg, 7 day test period",no weight loss was observed
same,Minimal inhibitory concentration (MIC),"[4]; A. niger A. 16404, RPMI-1640, 35° C.",6.25 µg/mL
same,Minimal inhibitory concentration (MIC),"[5]; T. mentagrophytes A. 9129, RPMI-1640, 35° C.",1.56 µg/mL
same,Minimal inhibitory concentration (MIC),"[6]; Cry. neoformans B. 42419, RPMI-1640, 35° C.",1.56 µg/mL
same,Minimal inhibitory concentration (MIC),"[7]; C. albicans IFO. 1385, RPMI-1640, 35° C.",0.39 µg/mL
same,Minimal inhibitory concentration (MIC),"[8]; T. glabrata B. 16205, RPMI-1640, 35° C.",6.25 µg/mL
same,Minimal inhibitory concentration (MIC),"[9]; Cry. neoformans A. 34144, RPMI-1640, 35° C.",1.56 µg/mL
same,Minimal inhibitory concentration (MIC),"[10]; T. mentagrophytes B. 32663, RPMI-1640, 35° C.",0.78 µg/mL
same,Minimal inhibitory concentration (MIC),"[11]; C. parapsitosis A. 7330, RPMI-1640, 35° C.",12.5 µg/mL
same,Minimal inhibitory concentration (MIC),"[12]; Cry. neoformans IFM. 40092, RPMI-1640, 35° C.",0.39 µg/mL
same,Minimal inhibitory concentration (MIC),"[13]; C. albicans C1-2, RPMI-1640, 35° C.",6.25 µg/mL
same,Minimal inhibitory concentration (MIC),"[14]; C. albicans A. 10231, RPMI-1640, 35° C.",6.25 µg/mL
same,Minimal inhibitory concentration (MIC),"[15]; A furnigatus B. 19119, RPMI-1640, 35° C.",3.13 µg/mL
same,Minimal inhibitory concentration (MIC),"[16]; C. krusei K. 11655, RPMI-1640, 35° C.",25.0 µg/mL
same,Minimal inhibitory concentration (MIC),"[17]; C. tropicalis A. 13803, RPMI-1640, 35° C.",12.5 µg/mL
COc1ccc(C=C(F)Oc2ccc(OCC3COC(Cn4ccnc4)(c4ccc(F)cc4F)O3)cc2)cc1 (mixture of isomers) [Ex. 105],"Minimal inhibitory concentration(MIC), A. niger A. 16404",[4]; [19],>100 µg/mL
same,"Minimal inhibitory concentration(MIC), T. mentagrophytes A. 9129",[5]; [19],100 µg/mL
same,"Minimal inhibitory concentration(MIC), C. pseudotropicalis K. 11658",[18],>100 µg/mL
same,"Minimal inhibitory concentration(MIC), Cry. neoformans B. 42419",[6]; [19],12.5 µg/mL
same,"Minimal inhibitory concentration(MIC), C. albicans IFO. 1385",[7]; [19],6.25 µg/mL
same,"Minimal inhibitory concentration(MIC), T. glabrata B. 16205",[8]; [19],>100 µg/mL
same,"Minimal inhibitory concentration(MIC), Cry. neoformans A. 34144",[9]; [19],6.25 µg/mL
same,"Minimal inhibitory concentration(MIC), T. mentagrophytes B. 32663",[10]; [19],100 µg/mL
same,"Minimal inhibitory concentration(MIC), C. parapsitosis A. 7330",[11]; [19],>100 µg/mL
same,"Minimal inhibitory concentration(MIC), Cry. neoformans IFM. 40092",[12]; [19],1.56 µg/mL
same,"Minimal inhibitory concentration(MIC), C. albicans C1-2",[13]; [19],100 µg/mL
same,"Minimal inhibitory concentration(MIC), C. albicans A. 10231",[14]; [19],50.0 µg/mL
same,"Minimal inhibitory concentration(MIC), A furnigatus B. 19119",[15]; [19],>100 µg/mL
same,"Minimal inhibitory concentration(MIC), C. krusei K. 11655",[16]; [19],>100 µg/mL
same,"Minimal inhibitory concentration(MIC), C. tropicalis A. 13803",[17]; [19],>100 µg/mL
